{"source": "patent US7943577B2", "about": "“Alpha-fetoprotein peptides and uses thereof” (Albany Medical College, priority 2001, dated 2011)", "key": {"[1]": {"tested_on": "MAPK activation and ER phosphorylation in T47-D human breast cancer cells", "assay": "E2-induced MAPK activation and ER serine-118 phosphorylation in T47-D cells", "type": "cell-based", "details": "E2 10^−8M, 60 m", "protocol": "Cells were treated with E2 for 60 m and lysed. The nuclear fraction was isolated, separated by gel electrophoresis of the nucleoproteins, and the proteins were transferred to membranes. The resolved nucleoproteins were immunoblotted with anti-phosphoMAPK (activated MAPK, pMAPK) and anti-phosphoER (pER.) The anti-pER is directed to ER's serine-118. The peptides of the invention, at, e.g., […], blocks MAPK E2 activation and E2-induced ER phosphorylation. However, there is no enhancement by E2 of either MAPK activation or ER phosphorylation when E2 is added with the peptides of the invention. It has been shown by Lobehofer et al. (Cell Growth Differ 11: 99-110 (2000)) that pharmacological inhibition of MAPK prevents E2-induced mitogenesis in human breast cancer cell line (MCF-7). Therefore, the peptides of the invention block ER phosphorylation, a step which is required for full transcriptional activity of ER, and as such, the peptides of the invention are useful anti-cancer, e.g., breast cancer, agents.\nThe inventors, while not wishing to be limited to a particular method or theory of how the present invention operates, have performed experiments using T-47D cells cultured with estradiol plus peptides of the invention, estradiol alone, peptide alone, or no additives (control). […] There was a corresponding reduction in the phosphorylation of serine 118 on the estrogen receptor. […]"}, "[2]": {"tested_on": "MCF-7 breast cancer cells", "assay": "PCNA and nuclear ERα immunoblot, MCF-7", "type": "cell-based, human", "design": "key to Total Nuclear Estrogen Receptor / PCNA accumulation: “+” indicates increase; “−” indicates decrease; “NC” indicates no change", "protocol": "(§1) Cell lines. Glioma cells: C6 cells were cultured in F-12K medium with 18% FBS. F98 cells and GL261 cells were cultured in DMEM with 10% FBS. Head and neck cancer: 22B cells were cultured in DMEM with 10% FBS. Papillary thyroid cancers: BHP2-7 cells and BHP18-21 cells were cultured in DMEM with 10% FBS. Small cell lung cancer: HTB184 cells were cultured in RPMI medium with 10% FBS. Breast cancers: MCF-7 cells were cultured in DMEM (w/o phenol red) with 5% FBS and MDA-MB cells were cultured in DMEM with 10% FBS. Colon cancer: Colo 205 cells were cultured in RPMI medium with 10% FBS. Ovarian cancer: OVCAR-3 cells were culture in RPMI medium with 20% FBS supplemented with insulin. Prostate cancers: LNCaP cells were cultured in RPMI medium with 10% FBS. DU145 cells were cultured in MEM with 10% FBS and PC3 cells were cultured in F-12 medium with 10% FBS. Cervical cancer: HeLa cells were cultured in MEM with 10% FBS. Melanoma cells were cultured in DMEM with 10% FBS. These conditions were determined to maintain cellular production of proliferating cell nuclear antigen (PCNA) at high levels immediately prior to study of AFP-related peptide. All cell cultures were maintained in a 5% CO2/95% O2 incubator at 37 C. Cell fractionation. Fractionation in a microfuge and preparation of nucleoproteins was by our previously reported methods (1-3). Nuclear extracts were prepared by resuspension of the crude nuclei in high salt buffer (hypotonic buffer with 420 mM NaCl and 20% glycerol) at 4° C. with rocking for 1 hr. The supernatants were collected after subsequent centrifugation at 4° C. and 13,000 rpm for 10 min. Immunoblotting. The techniques are standard and have been described in a number of our publications (1-3). In brief, nucleoproteins were separated on discontinuous SDS-PAGE and then transferred by electroblotting to nitocellulose membranes (Millipore, Bedford, Mass.). […] Immunoreactive proteins are detected by chemiluminescence."}, "[3]": {"tested_on": "MDA-MB breast cancer cells", "assay": "PCNA and nuclear ERα immunoblot, MDA-MB", "type": "cell-based, human", "design": "key to Total Nuclear Estrogen Receptor / PCNA accumulation: “+” indicates increase; “−” indicates decrease; “NC” indicates no change", "protocol": "as §1"}, "[4]": {"tested_on": "LNCaP prostate carcinoma cells", "assay": "PCNA and nuclear ERα immunoblot, LNCaP", "type": "cell-based, human", "design": "key to Total Nuclear Estrogen Receptor / PCNA accumulation: “+” indicates increase; “−” indicates decrease; “NC” indicates no change", "protocol": "as §1"}, "GL261 glioma cells": {"tested_on": "GL261 glioma cells", "assay": "PCNA and nuclear ERα immunoblot, GL261", "type": "cell-based, murine", "design": "key to Total Nuclear Estrogen Receptor / PCNA accumulation: “+” indicates increase; “−” indicates decrease; “NC” indicates no change", "protocol": "as §1"}}, "data": [{"compound": "C[C@]12CC[C@@H]3c4ccc(O)cc4CC[C@H]3[C@@H]1CC[C@@H]2O", "note": "[E2, 17β-estradiol]", "values": [{"measurement": "MAPK activation (pMAPK) and ER serine phosphorylation (pER), nuclear fraction immunoblot", "setting": "[1]", "result": "activates MAPK, e.g., in T47-D human breast cancer cells and serine-phosphorylates ER"}, {"measurement": "PCNA accumulation", "setting": "[2]; MCF-7 (Breast Cancer)", "result": "+"}, {"measurement": "Total Nuclear Estrogen Receptor", "setting": "[2]; MCF-7 (Breast Cancer)", "result": "+"}, {"measurement": "nuclear accumulation of activated ER (phosphoERα)", "setting": "[2]; MCF-7, 10^−9 M E2 or 10^−8 M AFP-peptide, 24 h", "result": "increased nuclear accumulation of activated ER (phosphoERα)"}, {"measurement": "PCNA accumulation", "setting": "[3]; MDA-MB (Breast Cancer)", "result": "NC"}, {"measurement": "Total Nuclear Estrogen Receptor", "setting": "[3]; MDA-MB (Breast Cancer)", "result": "NC"}, {"measurement": "nuclear ER", "setting": "[3]; MDA-MB, 10^−9 M E2 or 10^−6 M peptide, 24 h", "result": "no significant change in ER"}, {"measurement": "PCNA accumulation", "setting": "[4]; LNCaP (Prostate Cancer)", "result": "+"}, {"measurement": "Total Nuclear Estrogen Receptor", "setting": "[4]; LNCaP (Prostate Cancer)", "result": "NC"}, {"measurement": "nuclear ERα", "setting": "[4]; LNCaP, 10^−9 M E2 or 10^−6 M AFP-peptide, 24 h", "result": "did not increase nuclear accumulation of ERα"}, {"measurement": "PCNA accumulation", "setting": "GL261 glioma cells; GL261 (Glioma)", "result": "−"}, {"measurement": "Total Nuclear Estrogen Receptor", "setting": "GL261 glioma cells; GL261 (Glioma)", "result": "+"}, {"measurement": "nuclear ERα", "setting": "GL261 glioma cells; GL261, 10^−9 M E2 or 10^−6 M AFP-peptide, 24 h", "result": "increased nuclear accumulation of ERα"}]}]}
